From patent US9567371B2, “Short beta-defensin-derived peptides” (Yeda Research and Development Co. Ltd., priority 2009, dated 2017)
Peptide text beside a SMILES is read from it.

Legend:
CXCR4 = molecular target: T1, CXCR4 (Homo sapiens, UniProt P61073); assay: CXCR4 membrane expression (flow cytometry); type: cell-based; conditions: human cord blood CD34+ cells, 1 or 10 μM, 3 hrs
T1 construct: endogenous in cells; host or cells: human cord blood CD34+ cells, human pre-B-ALL G2 cells, U937 and HL-60 cells
T1 sequence (P61073 whole entry): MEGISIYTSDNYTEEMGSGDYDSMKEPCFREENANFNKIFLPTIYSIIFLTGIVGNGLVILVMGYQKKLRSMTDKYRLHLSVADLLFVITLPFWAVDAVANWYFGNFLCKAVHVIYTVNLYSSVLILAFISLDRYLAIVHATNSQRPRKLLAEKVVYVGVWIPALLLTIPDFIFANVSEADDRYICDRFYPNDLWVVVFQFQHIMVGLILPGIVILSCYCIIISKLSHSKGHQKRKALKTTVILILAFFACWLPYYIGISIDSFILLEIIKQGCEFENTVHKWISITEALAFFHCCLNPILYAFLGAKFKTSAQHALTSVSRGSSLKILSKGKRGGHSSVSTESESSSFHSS
Experimental: (§1) FIGS. 10A-10C. TL-1 and cTL1 down-regulate CXCR4 expression on human cord blood CD34^+ and G2 cells. Human cord blood CD34^+ and G2 cells were incubated with 1 or 10 μM TL-1 or cyclic TL-1 for 3 hrs or left untreated (UT), washed, stained with CXCR4 and CCR5 Ab and analyzed by flow cytometry. Representative histograms from 3 separate experiments are shown. FIG. 10A—effect of TL-1 on CXCR4 expression. FIG. 10B—effect of cTL-1 on CXCR4 expression. FIG. 10C—effects of TL-1 and cTL-1 on CCR5 expression.
(§2) Various cell types (1×10^6/mL) were pretreated with the peptides for 3 hrs as described above, washed and then stained in staining buffer (PBS supplemented with 0.5% FCS and 0.01% sodium azide) with mouse anti-human CXCR4-PE, CCR5-FITC (R&D Systems, Minneapolis, Minn.) or CD45-FITC (ImmunoQuality Products, Groningen, The Netherlands) mAbs for 30 min at 4° C. and analyzed by flow cytometry as described (Kalinkovich, A., et al., 2006). Appropriate IgG were used as the isotype controls.
(§3) Recently, it has been shown that HBD3 could induce internalization of CXCR4 but not of CCR5 in the CEM T cells expressing both CXCR4 and CCR5 (Feng, Z. et al., 2006) implying CXCR4 specificity in HBD3 action.

G2 cells [1] = assay: Homing assay of pretreated G2 cells in NOD/SCID mice; type: in vivo, mouse; conditions: 10 μM pretreatment 3 hrs, i.v. into non-irradiated NOD/SCID mice, 16 hrs
Experimental: (§4) FIGS. 8A-8D. Effect of TL-1 and cyclic TL-1 on in vitro and in vivo cell migration. (A, C) Human CD3^+, G2, cord blood CD34^+ and peripheral blood mononuclear (PBMC) cells were preincubated with 1 and 10 μM TL-1 for 3 hrs in serum free medium, washed and allowed to migrate towards SDF-1. Migrated cells were collected and calculated by flow cytometry. Percentage of migrated cells is presented as compared to untreated (UT) control taken as 100%. (B) G2 cells were similarly preincubated with 10 μM TL-1 or cTL-1 for the indicated periods of time and percentage of migrated cells is depicted. (D) Homing assay. G2 cells were similarly preincubated with 10 μM TL-1 or cTL-1 for 3 hrs, washed and i.v. injected (10×10^6/mouse) to non-irradiated NOD/SCID mice. Percentage of G2 cells in the murine BM and spleens was determined by staining with anti-human CD45 Ab and compared with untreated (UT) cells. […]
G2 cells (10×10^6/mL) pretreated with the peptides for 3 hrs as described above, were injected i.v. into non-irradiated NOD/SCID mice, which were sacrificed 16 hrs later. Samples of BM cells flushed from both femur and tibia bones and spleen cell suspension were prepared, and the percentage of human cells was determined by staining with anti-human CD45-FITC mAb (ImmunoQuality Products, Groningen, The Netherlands) as described (Spiegel, A., et al., 2004).

G2 cells [2] = assay: Transwell migration towards SDF-1; type: cell-based, human
Experimental: as §4
FIGS. 9A-9B. […] Migrated cells were collected and calculated by flow cytometry. […]
Various cells (1×10^6/mL), untreated or pretreated with peptides for 3 hrs at 96-well flat bottom plates at 37° C. were washed, 2×10^5 cells/100 μL were added to the upper chambers of Costar 24-well transwell plates with 5 μm pore filters (Corning Inc., Corning, N.Y.) and allowed to migrate for 2-4 hrs at 37° C. […] Migrated cells were collected from the lower chambers and counted using a flow cytometer. […]

CCR5 = CCR5 membrane expression (flow cytometry); type: cell-based, human; conditions: tested cells, 3 hrs preincubation
Experimental: as §1, §2, §3

CD45 = CD45 membrane expression (flow cytometry); type: cell-based, human; conditions: tested cells, 3 hrs preincubation
Experimental: as §2, §3

SDF-1 = SDF-1 plasma levels in injected mice (ELISA); type: in vivo, mouse; conditions: 5 mg/kg s.c., compared with mice injected with PBS
Experimental: SDF-1 levels in tested samples were determined by ELISA as described (Kalinkovich, A., et al., 2006) where the K15C monoclonal antibodies (mAb, INRA, Paris, France) recognizing the first three amino acids of SDF-1 were utilized as a capture Ab (10 μg/mL) in order to measure levels of intact, non-cleaved SDF-1. Levels of basic FGF (bFGF) and HGF in tested samples were determined by using corresponding capture mAbs and polyclonal biotynilated Abs (R&D Systems) as recommended by the manufacturer. In order to examine SDF-1, bFGF and HGF levels in cell supernatants, MS-5, MBA-15 and MG-63 cells were seeded in 24-well Costar wells and cultivated in RPMI 1640 or αMEM Eagle medium, respectively, with 10% FCS. When the cells reached confluence, the medium was changed to serum free medium and cells were cultivated for additional 6 hrs in the presence of various concentrations of the peptides. Medium samples were collected and centrifuged 10 min at 6000×g at 4° C. to remove cell debris. Supernatants were collected and kept at −70° C. until tested.

N=C(N)NCCC[C@@H]1NC(=O)CNC(=O)[C@H](CCCNC(=N)N)NC(=O)[C@H](CCCCN)NC(=O)[C@H](CCCCN)NC(=O)[C@H](CCCNC(=N)N)NC(=O)[C@H](CCCNC(=N)N)NC(=O)[C@H](CS)NC(=O)[C@H](CS)NC(=O)[C@H](CCCCN)NC1=O [cyclic TL-1, 1,10-cyclo[RGRKCCRRKK]] (cyclo(CCRRKKRGRK))
CXCR4 expression (CXCR4): decreased CXCR4 expression
homing of pretreated G2 cells to the BM (G2 cells [1]): decrease the homing
homing of pretreated G2 cells to the spleen (G2 cells [1]): decreased G2 cell homing
SDF-1-induced migration (G2 cells [2]; 1 μM): ineffective
inhibition of SDF-1-induced migration (G2 cells [2]; 10 μM): 2 fold
membrane expression of CCR5 (CCR5): either unaffected or slightly increased
membrane expression of CD45 (CD45): either unaffected or slightly increased
SDF-1 plasma levels (SDF-1): did not induce increase
